Measurements taken from ChEMBL document CHEMBL1201862, “PubChem BioAssay data set” (2004).
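Five concentrations, 48 hours, 96-well plates. Abbreviation: GI50, concentration required for 50% inhibition of growth.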 Calls of active or inactive are those of the source. Rule as the data show it: active = GI50 up to about 1.1 µM and inactive = higher.

Columns and labels:
Assay in all cases: growth of human tumour cells (NCI), 48 h
KM12 = tested on: KM12
SR = tested on: SR
COLO 205 = tested on: COLO 205
EKVX = tested on: EKVX
SK-MEL-2 = tested on: SK-MEL-2
MDA-MB-435 = tested on: MDA-MB-435
SK-MEL-28 = tested on: SK-MEL-28
SW-620 = tested on: SW-620
HCC 2998 = tested on: HCC 2998
OVCAR-8 = tested on: OVCAR-8
ACHN = tested on: ACHN
MDA-N = tested on: MDA-N
IGROV-1 = tested on: IGROV-1
HOP-62 = tested on: HOP-62
U-251 = tested on: U-251
RXF 393 = tested on: RXF 393
M14 = tested on: M14
SN12C = tested on: SN12C
BT-549 = tested on: BT-549
PC-3 = tested on: PC-3
SF-268 = tested on: SF-268
NCI/ADR-RES = tested on: NCI/ADR-RES
NCI-H23 = tested on: NCI-H23
LOX IMVI = tested on: LOX IMVI
CAKI-1 = tested on: CAKI-1
OVCAR-3 = tested on: OVCAR-3
HL-60 = tested on: HL-60
NCI-H226 = tested on: NCI-H226
OVCAR-5 = tested on: OVCAR-5
OVCAR-4 = tested on: OVCAR-4
NCI-H460 = tested on: NCI-H460
UACC-62 = tested on: UACC-62
DU-145 = tested on: DU-145
UACC-257 = tested on: UACC-257
MOLT-4 = tested on: MOLT-4
MCF7 = tested on: MCF7
HCT-15 = tested on: HCT-15
MDA-MB-231 = tested on: MDA-MB-231
SNB-75 = tested on: SNB-75
CCRF-CEM = tested on: CCRF-CEM
SK-MEL-5 = tested on: SK-MEL-5
SF-295 = tested on: SF-295
A498 = tested on: A498
TK-10 = tested on: TK-10
HCT-116 = tested on: HCT-116
SNB-19 = tested on: SNB-19
HT-29 = tested on: HT-29
HOP-92 = tested on: HOP-92
NCI-H522 = tested on: NCI-H522
SK-OV-3 = tested on: SK-OV-3
SF-539 = tested on: SF-539
K562 = tested on: K562
786-0 = tested on: 786-0
A549 = tested on: A549
UO-31 = tested on: UO-31
Malme-3M = tested on: Malme-3M
RPMI-8226 = tested on: RPMI-8226
T47D = tested on: T47D

SMILES: Cc1csc(-n2c(C)nc3cc(Cl)ccc3c2=O)n1
- GI50 (KM12): > 100 µM (inactive)
- GI50 (SR): > 100 µM (inactive)
- GI50 (COLO 205): 71 µM (inactive)
- GI50 (EKVX): 8.02 µM (inactive)
- GI50 (SK-MEL-2): > 100 µM (inactive)
- GI50 (MDA-MB-435): > 100 µM (inactive)
- GI50 (SK-MEL-28): > 100 µM (inactive)
- GI50 (SW-620): > 100 µM (inactive)
- GI50 (HCC 2998): > 100 µM (inactive)
- GI50 (OVCAR-8): > 100 µM (inactive)
- GI50 (ACHN): > 100 µM (inactive)
- GI50 (MDA-N): > 100 µM (inactive)
- GI50 (IGROV-1): 33.2 µM (inactive)
- GI50 (HOP-62): > 100 µM (inactive)
- GI50 (U-251): > 100 µM (inactive)
- GI50 (RXF 393): > 100 µM (inactive)
- GI50 (M14): > 100 µM (inactive)
- GI50 (SN12C): > 100 µM (inactive)
- GI50 (BT-549): > 100 µM (inactive)
- GI50 (PC-3): > 100 µM (inactive)
- GI50 (SF-268): 42.8 µM (inactive)
- GI50 (NCI/ADR-RES): 86.3 µM (inactive)
- GI50 (NCI-H23): 71.8 µM (inactive)
- GI50 (LOX IMVI): 96.2 µM (inactive)
- GI50 (CAKI-1): > 100 µM (inactive)
- GI50 (OVCAR-3): 78.9 µM (inactive)
- GI50 (HL-60): > 100 µM (inactive)
- GI50 (NCI-H226): > 100 µM (inactive)
- GI50 (OVCAR-5): > 100 µM (inactive)
- GI50 (OVCAR-4): 45.4 µM (inactive)
- GI50 (NCI-H460): > 100 µM (inactive)
- GI50 (UACC-62): > 100 µM (inactive)
- GI50 (DU-145): > 100 µM (inactive)
- GI50 (UACC-257): 91.6 µM (inactive)
- GI50 (MOLT-4): 46.7 µM (inactive)
- GI50 (MCF7): 31.5 µM (inactive)
- GI50 (HCT-15): 67.5 µM
- GI50 (MDA-MB-231): > 100 µM (inactive)
- GI50 (SNB-75): > 100 µM (inactive)
- GI50 (CCRF-CEM): 74.8 µM (inactive)
- GI50 (SK-MEL-5): 43.1 µM (inactive)
- GI50 (SF-295): > 100 µM (inactive)
- GI50 (A498): > 100 µM (inactive)
- GI50 (TK-10): > 100 µM (inactive)
- GI50 (HCT-116): > 100 µM (inactive)
- GI50 (SNB-19): > 100 µM (inactive)
- GI50 (HT-29): > 100 µM (inactive)
- GI50 (HOP-92): 10.4 µM (inactive)
- GI50 (NCI-H522): 22.2 µM (inactive)
- GI50 (SK-OV-3): > 100 µM (inactive)
- GI50 (SF-539): > 100 µM (inactive)
- GI50 (K562): 83.6 µM (inactive)
- GI50 (786-0): > 100 µM (inactive)
- GI50 (A549): > 100 µM (inactive)
- GI50 (UO-31): 58.2 µM (inactive)

SMILES: COC(=O)/C=C1/OC(c2ccccc2)=C(Br)C1=O
- GI50 (KM12): 55.5 µM (inactive)
- GI50 (SR): 20.8 µM (inactive)
- GI50 (Malme-3M): 49 µM (inactive)
- GI50 (COLO 205): > 100 µM (inactive)
- GI50 (EKVX): > 100 µM (inactive)
- GI50 (MDA-MB-435): 38 µM (inactive)
- GI50 (SK-MEL-28): 64.1 µM (inactive)
- GI50 (SW-620): 18.4 µM (inactive)
- GI50 (HCC 2998): 56.8 µM (inactive)
- GI50 (OVCAR-8): 29.9 µM (inactive)
- GI50 (ACHN): 46.8 µM (inactive)
- GI50 (MDA-N): 42.1 µM (inactive)
- GI50 (IGROV-1): > 10 µM (inactive)
- GI50 (HOP-62): > 100 µM (inactive)
- GI50 (U-251): 23.2 µM (inactive)
- GI50 (RXF 393): 48.2 µM (inactive)
- GI50 (M14): 44.7 µM (inactive)
- GI50 (SN12C): 37.1 µM (inactive)
- GI50 (BT-549): 18.7 µM (inactive)
- GI50 (PC-3): 18.9 µM (inactive)
- GI50 (SF-268): 49.4 µM (inactive)
- GI50 (NCI-H23): 57.5 µM (inactive)
- GI50 (LOX IMVI): 24.3 µM (inactive)
- GI50 (CAKI-1): 24.8 µM (inactive)
- GI50 (OVCAR-3): > 100 µM (inactive)
- GI50 (HL-60): 35.2 µM (inactive)
- GI50 (NCI-H226): 68.9 µM (inactive)
- GI50 (OVCAR-5): > 100 µM (inactive)
- GI50 (OVCAR-4): 55.7 µM (inactive)
- GI50 (NCI-H460): 35.9 µM (inactive)
- GI50 (UACC-62): 20 µM (inactive)
- GI50 (DU-145): 87.1 µM (inactive)
- GI50 (UACC-257): 73.3 µM (inactive)
- GI50 (MOLT-4): 28.5 µM (inactive)
- GI50 (MCF7): 34.3 µM (inactive)
- GI50 (HCT-15): 10.6 µM
- GI50 (RPMI-8226): 31.4 µM (inactive)
- GI50 (MDA-MB-231): 8.07 µM (inactive)
- GI50 (SNB-75): 45 µM (inactive)
- GI50 (CCRF-CEM): 25.8 µM (inactive)
- GI50 (SK-MEL-5): 20.3 µM (inactive)
- GI50 (T47D): 45.3 µM (inactive)
- GI50 (A498): 70.8 µM (inactive)
- GI50 (TK-10): 80.5 µM (inactive)
- GI50 (HCT-116): 17.9 µM (inactive)
- GI50 (SNB-19): 79.1 µM (inactive)
- GI50 (HT-29): 20.1 µM (inactive)
- GI50 (HOP-92): 64.4 µM (inactive)
- GI50 (NCI-H522): 25.1 µM (inactive)
- GI50 (SK-OV-3): > 100 µM (inactive)
- GI50 (SF-539): 45.9 µM (inactive)
- GI50 (K562): 21.7 µM (inactive)
- GI50 (786-0): 25 µM (inactive)
- GI50 (UO-31): 40 µM (inactive)
